SMILES strings stand for the structures.

factor B, sequence (P00751 260-764 limits assumed): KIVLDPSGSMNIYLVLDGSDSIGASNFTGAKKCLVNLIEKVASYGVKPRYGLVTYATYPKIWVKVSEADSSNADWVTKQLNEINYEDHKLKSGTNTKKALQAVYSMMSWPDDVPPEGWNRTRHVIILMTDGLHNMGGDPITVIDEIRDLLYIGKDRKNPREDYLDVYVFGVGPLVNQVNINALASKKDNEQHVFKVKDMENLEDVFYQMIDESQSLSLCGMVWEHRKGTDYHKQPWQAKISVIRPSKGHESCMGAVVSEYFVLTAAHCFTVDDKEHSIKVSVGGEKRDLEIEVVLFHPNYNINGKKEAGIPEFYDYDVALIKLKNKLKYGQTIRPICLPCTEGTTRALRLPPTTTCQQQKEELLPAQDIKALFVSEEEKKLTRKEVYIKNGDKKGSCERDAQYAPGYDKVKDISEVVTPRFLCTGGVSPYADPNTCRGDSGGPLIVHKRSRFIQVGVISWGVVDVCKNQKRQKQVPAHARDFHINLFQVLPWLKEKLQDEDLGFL
factor B, sequence (Q91132 23-649 partner limits assumed): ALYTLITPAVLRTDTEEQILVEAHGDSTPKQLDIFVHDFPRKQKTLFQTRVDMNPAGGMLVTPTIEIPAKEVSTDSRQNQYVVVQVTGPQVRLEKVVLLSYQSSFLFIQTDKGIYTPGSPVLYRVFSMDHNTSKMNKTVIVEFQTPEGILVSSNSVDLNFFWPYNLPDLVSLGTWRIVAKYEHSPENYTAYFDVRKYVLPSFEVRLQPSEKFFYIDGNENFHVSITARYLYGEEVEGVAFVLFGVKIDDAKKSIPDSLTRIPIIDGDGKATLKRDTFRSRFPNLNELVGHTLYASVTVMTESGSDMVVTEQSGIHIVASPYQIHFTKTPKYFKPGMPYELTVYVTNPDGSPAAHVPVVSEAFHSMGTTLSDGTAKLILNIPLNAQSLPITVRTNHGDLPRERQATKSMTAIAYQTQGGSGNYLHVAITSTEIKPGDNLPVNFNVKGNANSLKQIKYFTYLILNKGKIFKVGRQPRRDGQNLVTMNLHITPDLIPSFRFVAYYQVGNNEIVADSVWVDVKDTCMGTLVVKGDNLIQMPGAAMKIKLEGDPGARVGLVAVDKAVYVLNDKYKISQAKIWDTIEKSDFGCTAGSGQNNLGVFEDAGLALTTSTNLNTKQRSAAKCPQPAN
factor B, sequence (Q91132 733-984 partner limits assumed): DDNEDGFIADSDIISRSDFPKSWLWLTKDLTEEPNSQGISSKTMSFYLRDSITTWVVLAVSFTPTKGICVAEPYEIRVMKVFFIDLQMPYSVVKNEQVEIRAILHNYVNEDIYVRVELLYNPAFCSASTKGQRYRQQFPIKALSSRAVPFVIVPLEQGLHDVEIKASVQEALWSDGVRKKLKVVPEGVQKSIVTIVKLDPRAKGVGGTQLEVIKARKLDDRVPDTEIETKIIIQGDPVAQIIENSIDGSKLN
factor B, sequence (Q91132 1264-1642 partner limits assumed): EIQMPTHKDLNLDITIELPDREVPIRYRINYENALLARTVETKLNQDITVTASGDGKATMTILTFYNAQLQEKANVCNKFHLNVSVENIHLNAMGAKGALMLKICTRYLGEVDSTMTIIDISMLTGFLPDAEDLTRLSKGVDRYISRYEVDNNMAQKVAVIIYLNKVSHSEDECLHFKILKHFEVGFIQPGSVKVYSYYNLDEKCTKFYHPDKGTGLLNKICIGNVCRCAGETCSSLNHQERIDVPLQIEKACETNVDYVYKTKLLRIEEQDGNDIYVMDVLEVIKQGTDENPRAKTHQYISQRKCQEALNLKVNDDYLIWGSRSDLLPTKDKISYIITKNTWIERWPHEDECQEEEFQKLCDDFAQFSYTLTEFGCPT

This experiment has as its target factor B (Homo sapiens, UniProt P00751). Briefly: factor B inhibition assay of Biological Example 1. The format is biochemical. Details: CVF-Bb complex prepared from purified cobra venom factor (1 μM), recombinant human complement factor B; made in house; host or cells: drosophila cells (factor B); E. coli (factor D used to form the complex). Conditions: IC50 (nM), assay of Biological Example 1 (Table 1).
For orientation: IC50 means the concentration that gives 50% inhibition. Take `COC(c1nc2cc(C#N)ccc2[nH]1)c1c(CC(C)C)cc(C)c2[nH]ccc12` (single isomer, unassigned; (+)) [71 b) (+), (+)-2-((5-isobutyl-7-methyl-1H-indol-4-yl)(methoxy)methyl)-1H-benzo[d]imidazole-5-carbonitrile]: the IC50 was 4550 nM.
The same measure for `Cc1cc(C)c2[nH]ccc2c1C(C)(O)c1nc2cc(C#N)ccc2[nH]1` (single isomer, unassigned; (+)) [76-B b) (+), (+)-2-(1-(5,7-Dimethyl-1H-indol-4-yl)-1-hydroxyethyl)-1H-benzo[d]imidazole-5-carbonitrile]: 290 nM; for `CCc1cc(C)c2[nH]ccc2c1C(C)(O)c1nc2cc(C#N)ccc2[nH]1` (single isomer, unassigned; (+)) [77-C b) (+), (+)-2-(1-(5-ethyl-7-methyl-1H-indol-4-yl)-1-hydroxyethyl)-1H-benzo[d]imidazole-5-carbonitrile]: 40 nM; for `Cc1cc(C(C)C)c(C(C)(O)c2nc3cc(C#N)ccc3[nH]2)c2cc[nH]c12` (single isomer, unassigned; (+)) [79-B b) (+), (+)-2-(1-hydroxy-1-(5-isopropyl-7-methyl-1H-indol-4-yl)ethyl)-1H-benzo[d]imidazole-5-carbonitrile]: 1070 nM.
Consider `Cc1cc(C2CC2)c(C(C)(O)c2nc3cc(C#N)ccc3[nH]2)c2cc[nH]c12` (single isomer, unassigned; (+)) [79-C b) (+), (+)-2-(1-(5-cyclopropyl-7-methyl-1H-indol-4-yl)-1-hydroxyethyl)-1H-benzo[d]imidazole-5-carbonitrile], for which the IC50 was 8 nM.
The same measure for `Cc1cc(CC(C)C)c(C(C)(O)c2nc3cc(C#N)ccc3[nH]2)c2cc[nH]c12` (single isomer, unassigned; (+)) [79-D b) (+), (+)-2-(1-hydroxy-1-(5-isobutyl-7-methyl-1H-indol-4-yl)ethyl)-1H-benzo[d]imidazole-5-carbonitrile]: 2240 nM; for `Cc1cc(Cl)c(C(C)(O)c2nc3cc(C#N)ccc3[nH]2)c2cc[nH]c12` (single isomer, unassigned; (+)) [79-E b) (+), (+)-2-(1-(5-chloro-7-methyl-1H-indol-4-yl)-1-hydroxyethyl)-1H-benzo[d]imidazole-5-carbonitrile]: 1120 nM.
As for `CCc1cc(C)c2[nH]ccc2c1C(O)(c1nc2cc(C#N)ccc2[nH]1)C(F)(F)F` (single isomer, unassigned; (+)) [80-C b) (+), (+)-2-(1-(5-ethyl-7-methyl-1H-indol-4-yl)-2,2,2-trifluoro-1-hydroxyethyl)-1H-benzo[d]imidazole-5-carbonitrile], the IC50 amounted to 380 nM.
As to `Cc1cc(C)c2[nH]ccc2c1C(O)(c1nc2cc(C#N)ccc2[nH]1)C(F)(F)F` (single isomer, unassigned; (+)) [80-D b) (+), (+)-2-(1-(5,7-dimethyl-1H-indol-4-yl)-2,2,2-trifluoro-1-hydroxyethyl)-1H-benzo[d]imidazole-5-carbonitrile], the IC50 is 4330 nM.
The same measure for `Cc1cc(C2CC2)c(C(O)(c2nc3cc(C#N)ccc3[nH]2)C(F)(F)F)c2cc[nH]c12` (single isomer, unassigned; (+)) [80-E b) (+), (+)-2-(1-(5-cyclopropyl-7-methyl-1H-indol-4-yl)-2,2,2-trifluoro-1-hydroxyethyl)-1H-benzo[d]imidazole-5-carbonitrile]: 180 nM; for `Cc1cc(C(C)C)c(C(O)(c2nc3cc(C#N)ccc3[nH]2)C(F)(F)F)c2cc[nH]c12` (single isomer, unassigned; (+)) [80-F b) (+), (+)-2-(2,2,2-trifluoro-1-hydroxy-1-(5-isopropyl-7-methyl-1H-indol-4-yl)ethyl)-1H-benzo[d]imidazole-5-carbonitrile]: 690 nM.
With `COC(C)(c1nc2cc(C#N)ccc2[nH]1)c1c(C)cc(C)c2[nH]ccc12` (single isomer, unassigned; (+)) [84-B b) (+), (+)-2-(1-(5,7-dimethyl-1H-indol-4-yl)-1-methoxyethyl)-1H-benzo[d]imidazole-5-carbonitrile] the figure was 710 nM.

The values above are taken from patent US9056874B2, “Complement pathway modulators and uses thereof” (NOVARTIS AG, priority 2012, dated 2015).
